Results: paper PMC12888871, “Population pharmacokinetics of caspofungin in critically ill Chinese children: a prospective observational study” (Antimicrobial Agents and Chemotherapy, 2025)
Like-named read-outs stand apart in the source and are kept apart here.

What was measured:
[1] = Population pharmacokinetic analysis of total plasma caspofungin in PICU patients (final two-compartment model, NONMEM, n = 29, 138 samples); type: in vivo, human (critically ill Chinese children); conditions: for AUCss,24h, range / AUC(0-t): Bayesian posterior estimates; for AUC(0-t): plasma, iv, read-out: AUCss,24h, median
Experimental: (§1) A prospective clinical study was conducted among pediatrics in PICU from Children’s Hospital of Fudan University from 1 November 2022 to 30 December 2024. Children aged 3 months to 18 years who were admitted to PICU and received caspofungin therapy were eligible for inclusion. The study population encompassed critically ill children, including but not limited to those with liver insufficiency, hypoproteinemia, ECMO treatment, continuous renal replacement therapy (CRRT), or sepsis. Eligible subjects were administered a once-daily, 1-h intravenous infusion of caspofungin, following a body surface area (BSA)-based dosage regimen: a loading dose (LD) of 70 mg/m² (not to exceed 70 mg) on the first day, followed by 50 mg/m² (not exceed 70 mg) for maintenance dose (MD). BSA was calculated using the Mosteller formula: […] ([14]). All participants were provided written consent prior to participating in the study (US Clinical Trials, NCT04961593). Demographic and baseline clinical laboratory data were collected from the medical records, including age, sex, body weight, height, BSA, liver function, renal function, and various biomarkers reflecting immune system status. Information on bacterial cultures was also collected from microbiological laboratory reports. The biochemical measurements were derived from the most recent clinical laboratory results available within 7 days prior to the first caspofungin administration, reflecting the patient’s baseline physiological status.
Total caspofungin plasma concentrations were quantified using a liquid chromatography tandem mass spectrometry (LC-MS/MS) method. Blood samples were collected with EDTA-K2 as anticoagulant, and plasma was obtained by centrifugation at 4,000 g for 5 min and stored at −80°C until analysis, which would be performed within 30 days. The analysis was performed using the LC-40AD chromatographic system (Shimazu, Tokyo, Japan) combined with a 6500+ Triple Quad mass spectrometry system (AB Sciex, Framingham, USA). The separation is achieved on a Kinetex C18 column (2.1 × 50 mm, 2.6 μm) using a mobile phase composed of buffer (0.1% [vol/vol] formic acid and 5 mM ammonium acetate) and methanol (0.1% [vol/vol] formic acid). A volume of 40 μL of each plasma sample was precipitated with 260 μL of methanol with 0.4% formic acid. After centrifugation, 150 μL of the supernatants was mixed with 150 μL of water, and a volume of 1 μL of mixture was injected into the chromatographic system. The calibration range of caspofungin was linear over the range of 0.05 to 50 μg/mL with a lower limit of quantification (LLOQ) of 0.05 μg/mL. The samples with concentration that exceeded the upper limit were diluted into half by using blank plasma sample. All the analysis run met the requirement of M10 guideline for bioanalytical method validation and study sample analysis ([15]).
(§2) This study incorporated data from two study stages: the intensive sampling stage, followed by a sparse sampling stage (Fig. S1). In the first stage, the sampling time points were scheduled at pre-dose, 1, 2, 4, 8 h (if feasible) and 16 h (if feasible) following the most recent dose (the sixth administration after the first dose). The optimal sparse sampling design was then conducted to minimize the number of sampling points based on the defined constraint conditions. The designed sparse sampling time windows were pre-dose (0–1 h), 0.5–1.5, 6–7, and 23–24 h after the prior dose (the sixth administration after the first dose). The detailed optimal design process was described in the Supplemental material.
The PopPK model was developed using the non-linear mixed-effects modeling software NONMEM (version 7.5, ICON Development Solutions, Ellicott City, Maryland) with the first-order conditional estimation with interaction (FOCE-I) algorithm. […]

[2] = cited from earlier work
Source text: Our results are consistent with three published pediatric PopPK studies that also employed a two-compartment model ([25][–][27]). In contrast, one other pediatric study employed a one-compartment model, probably due to its sparse PK data (48 subjects and 139 observations) ([28]). […] The b ... || Previous studies involving pediatric populations typically included body size on PK parameters. Among them, three studies ([25], [26], [28]) included BSA as a significant covariate on CL and V1 while one study ([27]) emphasized the effect of body weight. In our study, allometric BSA-based allometric scaling yielded lower OFV and AIC compared with weight, LBW, and FFM. The estimated BSA exponent for CL varied considerably across studies, likely reflecting differences in study populations.

[3] = tested on: positive fungal culture (C. parapsilosis, C. albicans, C. tropicalis, C. guilliermondii); assay: Fungal culture conversion during caspofungin therapy; type: in vivo, human (critically ill children); conditions: thirteen patients with positive fungal culture during caspofungin infusion
Experimental: as §1, with “The biochemical measurements were derived from the most recent clinical laboratory results available within 7 days prior to the first caspofungin administration, reflecting the patient’s baseline physiological status.” left out

[4] = First-stage population pharmacokinetic model from intensive sampling (n = 14), used for optimal sampling design; type: in vivo, human (critically ill children)
Experimental: as §2
During the optimized sampling process, explicit constraint conditions were defined. In the second phase of our study, approximately 40 participants were to be recruited to receive a daily 1-hour intravenous infusion of caspofungin, with a BSA-based dosing strategy. Sampling was planned to take place within one single day after reaching steady-state levels. Given that the study subjects were pediatric patients, we aimed to minimize the number of sampling points.
Design software tools, including $DESIGN option in NONMEM and PopED (version 0.6.0, R package), were utilized to explore design elements such as sampling size, and sampling times. These tools evaluated uncertainties in PK parameter estimates based on the current sampling scheme and population pharmacokinetic (PPK) model. The designs were evaluated to ensure the precise estimation of typical PK parameters, defined as a relative standard error (RSE) of less than 50%.
Figure S1. Study flow diagram. In the first stage of the study, a population pharmacokinetic model was developed based on intensive sampling data collected from the prospective clinical study conducted among pediatrics with a small sample size in ICU. Secondly, design software tools, including $DESIGN in NONMEM and PopED, were utilized to optimize sampling design. During the third phase in our study, the optimized sampling scheme would be applied to a larger-scale study.

[5] = published pediatric PK estimates

Compound: CC[C@H](C)C[C@H](C)CCCCCCCCC(=O)N[C@H]1C[C@@H](O)[C@@H](NCCN)NC(=O)[C@@H]2[C@@H](O)CCN2C(=O)[C@H]([C@H](O)CCN)NC(=O)[C@H]([C@H](O)[C@@H](O)c2ccc(O)cc2)NC(=O)[C@@H]2C[C@@H](O)CN2C(=O)[C@H]([C@@H](C)O)NC1=O [caspofungin]
- AUCss,24h, range ([1]; ECMO group, n = 4): 17.20 to 176.04 µg·h/mL
- AUCss,24h, range ([1]; non-ECMO group, n = 25): 53.18 to 380.95 µg·h/mL
- Increase in V1 associated with ECMO ([1]; final PopPK model): 18.2 fold
- Q (inter-compartment exchange rate), estimate ([1]; final PopPK model): 1.01 L/h
- V2 (peripheral volume), estimate ([1]; final PopPK model): 1.63 L
- V2, bootstrap (n = 1,000) median [95% CI] ([1]; final PopPK model, bootstrap n = 1,000): 1.89 [1.20–4.29] L
- V1 (volume of the central compartment), estimate ([1]; final PopPK model, scaled to 0.79 m^2 (BSA exponent 1), without ECMO): 2.22 L
- AUC(0-t) ([1]; human, ECMO group, n = 4): 117 µg·h/mL
- AUC(0-t) ([1]; human, non-ECMO group, n = 25): 194 µg·h/mL
- clearance ([1]; human, final PopPK model, typical value scaled to a 0.79 m^2 individual (BSA exponent 0.66), 1-h iv infusion once daily, total plasma, LC-MS/MS, n = 29, read-out: CL, estimate (converted)): 3.27 mL/min
- BSA-normalized CL ([1]; this study, final PopPK model): 0.248 L/h/m^2
- BSA-normalized V1 ([1]; this study, final PopPK model): 2.81 L/m^2
- Elimination rate constant (ke) ([1]; this study, final PopPK model): 0.088 h⁻¹
- Elimination rate constant (ke), median ([2]; other four pediatric studies): 0.0875 h⁻¹
- Elimination rate constant (ke), range ([2]; other four pediatric studies): 0.074 to 0.101 h⁻¹
- BSA-normalized clearance, median [2, 5]: 0.208 L/h/m^2
- BSA-normalized clearance, range [2, 5]: 0.126–0.21 L/h/m^2
- BSA-normalized volume of distribution (V1), median [2, 5]: 2.19 L/m^2
- BSA-normalized volume of distribution (V1), range [2, 5]: 1.72–2.62 L/m^2
- Culture conversion in patients with positive fungal culture [3]: all of them eventually achieved successful culture conversion to negative
- The effect of AST on Q, final estimate ([4]; exponent on AST/52.5): 0.898
- clearance ([4]; human, plasma, iv, n = 14, CL = 0.477 x (weight/70)^0.75, read-out: CL, final estimate (converted)): 7.95 mL/min
- Q, final estimate ([4]; n = 14, Q = 0.512 x (weight/70)^0.75 x (AST/52.5)^0.898): 0.512 L/h
- V1, final estimate ([4]; n = 14, V1 = 11.8 x (weight/70)^1): 11.8 L
- V2, final estimate ([4]; n = 14, V2 = 19.2 x (weight/70)^1): 19.2 L
